# Source: patent US10980777B2, “Indole derivatives as histone demethylase inhibitors” (Istituto Europeo di Oncologia S.r.l., priority 2017, dated 2021)
# Structures can show the parent of a compound that is named as a salt. Where two headings read alike, the source gives them in different places.
# What was measured:
# [1] = biological target: T1, human recombinant KDM1A/CoREST protein (Homo sapiens, UniProt O60341); assay: Assay of enzyme inhibition of KDM1A (LSD1), TR-FRET; format: biochemical
# T1 construct: made in house; host or cells: E. coli
# Experimental: 2.1 Assay of Enzyme Inhibition of KDM1A (LSD1)
# The KDM1A inhibiting activity was determined using a TR-FRET assay (time resolved fluorescence resonance energy transfer, Lance® Ultra Demethylase technology (Perkin Elmer, Waltham, Mass., USA)), which comprises a Europium chelate donor dye (TRF0404, Perkin Elmer, Waltham, Mass., USA) together with ULight™ (TR0102, Perkin Elmer, Waltham, Mass., USA), a small molecular weight acceptor dye with a red-shifted fluorescent emission, and a biotinylated 21 amino acids histone H3-derived monomethylated peptide (H3K4me) [Lys(Me1)4]-Histone H3 (1-21)-GGK(biotin), (64355, Anaspec, Fremont, Calif., USA) as substrate. The intensity of the light emission is proportional to the level of biotinylated reaction product. The complex of human recombinant KDM1A/CoREST protein was produced in E. coli as separate proteins and co-purified as previously described.(Forneris, F. et al. Trends Biochem, Sci, 2008, 33, 181-189) (Forneris, F. et al. J. Biol. Chem. 2007, 282, 20070-20074).
# Demethylase Assay conditions: 0.25 nM KDM1A/CoREST protein and compound in 100% DMSO were added in a final volume of 48 μL assay buffer (Tris HCl 50 mM pH 8.8, NaCl 50 mM, DTT 1 mM, Tween-20 0.01% (by volume)) to each well of a 96 well half area flat bottom white plate (3693 Costar, Sigma-Aldrich, St. Louis, M, USA).
# Demethylase reaction was started by the addition of 50 nM histone H3K4 monomethylated. After 20 min at RT, 300 μM tranylcypromine (P8511-1G, Sigma-Aldrich, St. Louis, Mo. 63103) was added to stop the reaction.
# Detection step conditions: 10 μL of the assay mixture was transferred from the original plate into a 384 well white plate (6007290 OptiPlate™, Perkin Elmer, Waltham, Mass., USA) and 10 μL of the detection Mix containing 2 nM Eu-antibody and 10 nM U-Light-Streptavidin in 1× Lance Detection Buffer (TRF0404, TR0102, CR97100, Perkin Elmer, Waltham, Mass., USA). The resulting mixture was incubated in the dark for 1 h at RT. Then, TR-FRET signal was read by a fluorimeter (Infinite® F200, Tecan, Männedorf, Switzerland) (Excitation 320 nm, Emission 665 nm and 620 nm, delay time 50 μs, window time 100 μs).
# IC50 determination: The inhibitor concentrations ranged from 0.025 to 500 μM (serial 1:3 dilutions). The IC50 was calculated using GraphPad Software.
# human leukemia NB4 cells = assay: Cell growth, CellTiter-Fluor cell viability assay, NB4; format: cell-based; conditions: NB-4, 48 h incubation, read-out: IC50 against human leukemia NB4 cells
# From the text: (§1) CellTiter-Flor® (Promega) is as a nonlytic, single-reagent-addition fluorescence assay that measures the relative number of living cells in a culture population after experimental manipulation. The CellTiter-Fluor™ Cell Viability Assay measures the conserved and constitutive protease activity within live cells and therefore acts as a marker for cell viability.
# (§2) Human leukemia MV4-11 cells, (obtained from the Deutsche Sammlung von Mikroorganismen und Zellkulturen, ACC 102) or NB4 cells, (obtained from the Deutsche Sammlung von Mikroorganismen und Zellkulturen) in exponential growth, were incubated for 48 h with different concentrations of the inhibitors. After 48 h a volume of CellTiter-Fluor® Reagent equal to one fifth of volume of cell culture medium was added. The content was mixed and incubates for at least 90 min at 37° C. degree to obtain a stable signal. The fluorescence was recorded using an excitation wavelength of 360 nm and an emission at 535 nm. The IC50 was calculated using GraphPad Software.
# [2] = test system: Human leukemia MV4-11 cells; assay: Cell growth, CellTiter-Fluor cell viability assay, MV4-11; format: cell-based; conditions: 48 h incubation, read-out: IC50 against human leukemia MV4-11 cells
# From the text: as §1, §2
# [3] = 0.25 nM KDM1A/CoREST, 50 nM H3K4 monomethylated peptide, 20 min at RT, read-out: IC50, KDM1A (LSD1) enzyme inhibition
Compound,"IC50 [1, 3]",IC50 (human leukemia NB4 cells),IC50 [2],IC50 [1]
"Cn1c(C(=O)c2cn(CCOc3ccc(OC[C@@H]4CCNC4)cc3)c3ccccc23)cc2sccc21 (stereo in doubt) [Compound 15, (4-methylthieno[3,2-b]pyrrol-5-yl)-[1-[2-[4-(pyrrolidin-3-ylmethoxy)phenoxy]ethyl]indol-3-yl]methanone hydrochloride]",< 0.5 µM,< 10 µM,< 10 µM,–
"Cn1c(C(=O)c2cn(CCOc3cccc(O[C@@H]4CCCNCC4)c3)c3ccccc23)cc2sccc21 (stereo in doubt) [Compound 20, [1-[2-[3-(azepan-4-yloxy)phenoxy]ethyl]indol-3-yl]-(4-methylthieno[3,2-b]pyrrol-5-yl)methanone hydrochloride]",< 0.5 µM,< 10 µM,–,–
"Cn1c(C(=O)c2cn(CCOc3ccc(O[C@H]4CCCNCC4)cc3)c3ccccc23)cc2sccc21 (stereo in doubt) [Compound 21, [1-[2-[4-(azepan-4-yloxy)phenoxy]ethyl]indol-3-yl]-(4-methylthieno[3,2-b]pyrrol-5-yl)methanone hydrochloride]",< 0.5 µM,< 10 µM,–,–
"Cn1c(C(=O)c2cn(CCCc3ccc(OC[C@@H]4CCNC4)cc3)c3ccccc23)cc2sccc21 (stereo in doubt) [Compound 22, (4-methylthieno[3,2-b]pyrrol-5-yl)-[1-[3-[4-(pyrrolidin-3-ylmethoxy)phenyl]propyl]indol-3-yl]methanone hydrochloride]",< 0.5 µM,< 10 µM,–,–
"Cn1c(C(=O)c2cn(CCCc3ccc(O[C@H]4CCCNCC4)cc3)c3ccccc23)cc2sccc21 (stereo in doubt) [Compound 25, [1-[3-[4-(azepan-4-yloxy)phenyl]propyl]indol-3-yl]-(4-methylthieno[3,2-b]pyrrol-5-yl)methanone hydrochloride]",< 0.5 µM,–,–,–
"CCn1c(C(=O)c2cn(CCCc3ccc(OC[C@@H]4CCNC4)cc3)c3ccccc23)cc2sccc21 (stereo in doubt) [Compound 28, (4-ethylthieno[3,2-b]pyrrol-5-yl)-[1-[3-[4-(pyrrolidin-3-ylmethoxy)phenyl]propyl]indol-3-yl]methanone hydrochloride]",< 0.5 µM,–,–,–
"Cn1c(C(=O)c2cn(CCCc3ccc(OC[C@@H]4CCNC4)cc3)c3ccccc23)cc2ccsc21 (stereo in doubt) [Compound 29, (6-methylthieno[2,3-b]pyrrol-5-yl)-[1-[3-[4-(pyrrolidin-3-ylmethoxy)phenyl]propyl]indol-3-yl]methanone]",< 0.5 µM,–,–,–
"Cn1c(C(=O)c2c[nH]c3ccccc23)cc2sccc21 [Compound 1, 1H-indol-3-yl-(4-methylthieno[3,2-b]pyrrol-5-yl)methanone]",< 50 µM,–,–,–
"Cc1ccc2[nH]cc(C(=O)c3cc4sccc4n3C)c2c1 [Compound 2, (5-methyl-1H-indol-3-yl)-(4-methylthieno[3,2-b]pyrrol-5-yl)methanone]",< 50 µM,–,–,–
"CCn1c(C(=O)c2c[nH]c3ccccc23)cc2sccc21 [Compound 5, (4-ethylthieno[3,2-b]pyrrol-5-yl)-(1H-indol-3-yl)methanone]",< 50 µM,–,–,–
"Cn1c(C(=O)c2c[nH]c3ccccc23)cc2ccsc21 [Compound 6, 1H-indol-3-yl-(6-methylthieno[2,3-b]pyrrol-5-yl)methanone]",< 50 µM,–,–,–
"COCCn1cc(C(=O)c2cc3sccc3n2C)c2ccccc21 [Compound 8, [1-(2-Methoxyethyl)indol-3-yl]-(4-methylthieno[3,2-b]pyrrol-5-yl)methanone]",–,–,–,< 50 µM
"Cn1c(C(=O)c2cn(CCOc3ccccc3OCC3CCNC3)c3ccccc23)cc2sccc21 (stereo not shown) [Compound 11, (4-Methylthieno[3,2-b]pyrrol-5-yl)-[1-[2-[2-(pyrrolidin-3-ylmethoxy)phenoxy]ethyl]indol-3-yl]methanone hydrochloride]",< 5 µM,< 10 µM,< 10 µM,–
"Cn1c(C(=O)c2cn(CCOc3cccc(OCC4CCNC4)c3)c3ccccc23)cc2sccc21 (stereo not shown) [Compound 12, (4-methylthieno[3,2-b]pyrrol-5-yl)-[1-[2-[3-(pyrrolidin-3-ylmethoxy)phenoxy]ethyl]indol-3-yl]methanone]",< 0.5 µM,–,–,–
"Cn1c(C(=O)c2cn(CCOc3cccc(OC[C@H]4CCNC4)c3)c3ccccc23)cc2sccc21 [Compound 13, (4-methylthieno[3,2-b]pyrrol-5-yl)-[1-[2-[3-[[(3S)-pyrrolidin-3-yl]methoxy]phenoxy]ethyl]indol-3-yl]methanone hydrochloride]",< 0.5 µM,< 10 µM,< 10 µM,–
"Cn1c(C(=O)c2cn(CCOc3cccc(OC[C@@H]4CCNC4)c3)c3ccccc23)cc2sccc21 [Compound 14, (4-methylthieno[3,2-b]pyrrol-5-yl)-[1-[2-[3-[[(3R)-pyrrolidin-3-yl]methoxy]phenoxy]ethyl]indol-3-yl]methanone hydrochloride]",< 0.5 µM,< 10 µM,< 10 µM,–
"Cn1c(C(=O)c2cn(CCOc3cccc(OC4CCNCC4)c3)c3ccccc23)cc2sccc21 [Compound 16, (4-methylthieno[3,2-b]pyrrol-5-yl)-[1-[2-[3-(4-piperidyloxy)phenoxy]ethyl]indol-3-yl]methanone hydrochloride]",< 0.5 µM,< 10 µM,< 10 µM,–
"Cn1c(C(=O)c2cn(CCOc3ccc(OC4CCNCC4)cc3)c3ccccc23)cc2sccc21 [Compound 17, (4-methylthieno[3,2-b]pyrrol-5-yl)-[1-[2-[4-(4-piperidyloxy)phenoxy]ethyl]indol-3-yl]methanone hydrochloride]",< 0.5 µM,< 10 µM,< 10 µM,–
"Cn1c(C(=O)c2cn(CCOc3cccc(OCC4CCNCC4)c3)c3ccccc23)cc2sccc21 [Compound 18, (4-methylthieno[3,2-b]pyrrol-5-yl)-[1-[2-[3-(4-piperidylmethoxy)phenoxy]ethyl]indol-3-yl]methanone hydrochloride]",< 0.5 µM,< 10 µM,< 10 µM,–
"Cn1c(C(=O)c2cn(CCCc3ccc(OCC4CCNCC4)cc3)c3ccccc23)cc2sccc21 [Compound 23, (4-methylthieno[3,2-b]pyrrol-5-yl)-[1-[3-[4-(4-piperidylmethoxy)phenyl]propyl]indol-3-yl]methanone hydrochloride]",< 0.5 µM,< 10 µM,–,–
"Cn1c(C(=O)c2cn(CCCc3ccc(OC4CCNCC4)cc3)c3ccccc23)cc2sccc21 [Compound 24, (4-methylthieno[3,2-b]pyrrol-5-yl)-[1-[3-[4-(4-piperidyloxy)phenyl]propyl]indol-3-yl]methanone hydrochloride]",< 0.5 µM,< 10 µM,–,–
"Cn1c(C(=O)c2cn(CCCc3ccc(OCC4CCNCC4)c(OCC4CCNCC4)c3)c3ccccc23)cc2sccc21 [Compound 26, [1-[3-[3,4-bis(4-piperidylmethoxy)phenyl]propyl]indol-3-yl]-(4-methylthieno[3,2-b]pyrrol-5-yl)methanone]",< 0.5 µM,–,–,–
"CCn1c(C(=O)c2cn(CCCc3ccc(OC4CCNCC4)cc3)c3ccccc23)cc2sccc21 [Compound 27, (4-ethylthieno[3,2-b]pyrrol-5-yl)-[1-[3-[4-(4-piperidyloxy)phenyl]propyl]indol-3-yl]methanone hydrochloride]",< 0.5 µM,–,–,–
"Cn1c(C(=O)c2cn(CCCc3ccc(OC4CCNCC4)cc3)c3ccccc23)cc2ccsc21 [Compound 30, (6-methylthieno[2,3-b]pyrrol-5-yl)-[1-[3-[4-(4-piperidyloxy)phenyl]propyl]indol-3-yl]methanone]",< 0.5 µM,–,–,–
